Assay results reported in paper PMC4513247 (Molecular pharmacology, 2010).
Like-named read-outs stand apart in the source and are kept apart here.

Tests used:
[1] = target: SERT^WT (Homo sapiens, UniProt P31645); assay type: binding
[2] = test system: NET; settings: NET versus SERT; no reference given; cited from earlier work
[3] = target: T1, DAT (Homo sapiens, UniProt Q01959); settings: DAT versus SERT; no reference given; cited from earlier work
[4] = test system: NCCc1c[nH]c2ccc(O)cc12; assay: cells, lysate or membranes; settings: other: SERT^WT; [3H]5-HT saturation uptake, HEK293 cells
[5] = target: T1, DAT; assay type: binding; settings: ~10 nM [3H]WIN35,428, fixed concentrations of carbamazepine
[6] = SERT, ~2 nM [3H]imipramine, fixed concentrations of carbamazepine

Sequence of SERT^WT (P31645 whole entry): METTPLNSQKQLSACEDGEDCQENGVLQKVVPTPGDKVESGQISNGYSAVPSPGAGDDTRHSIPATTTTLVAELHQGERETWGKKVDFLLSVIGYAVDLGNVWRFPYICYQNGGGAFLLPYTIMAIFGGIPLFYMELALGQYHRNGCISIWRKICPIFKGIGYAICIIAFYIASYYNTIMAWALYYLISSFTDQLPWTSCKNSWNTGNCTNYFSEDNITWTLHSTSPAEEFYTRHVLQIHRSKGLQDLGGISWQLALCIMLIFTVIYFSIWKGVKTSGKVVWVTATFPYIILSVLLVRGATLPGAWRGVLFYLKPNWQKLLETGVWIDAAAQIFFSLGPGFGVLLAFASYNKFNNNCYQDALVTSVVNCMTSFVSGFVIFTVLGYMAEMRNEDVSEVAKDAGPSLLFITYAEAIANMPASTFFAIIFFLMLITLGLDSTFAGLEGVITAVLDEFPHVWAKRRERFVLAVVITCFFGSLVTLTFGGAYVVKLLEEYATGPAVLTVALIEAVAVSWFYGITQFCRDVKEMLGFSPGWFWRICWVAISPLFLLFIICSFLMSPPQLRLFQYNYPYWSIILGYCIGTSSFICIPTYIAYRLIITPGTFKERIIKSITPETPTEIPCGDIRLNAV
T1 sequence (Q01959 whole entry, species assumed): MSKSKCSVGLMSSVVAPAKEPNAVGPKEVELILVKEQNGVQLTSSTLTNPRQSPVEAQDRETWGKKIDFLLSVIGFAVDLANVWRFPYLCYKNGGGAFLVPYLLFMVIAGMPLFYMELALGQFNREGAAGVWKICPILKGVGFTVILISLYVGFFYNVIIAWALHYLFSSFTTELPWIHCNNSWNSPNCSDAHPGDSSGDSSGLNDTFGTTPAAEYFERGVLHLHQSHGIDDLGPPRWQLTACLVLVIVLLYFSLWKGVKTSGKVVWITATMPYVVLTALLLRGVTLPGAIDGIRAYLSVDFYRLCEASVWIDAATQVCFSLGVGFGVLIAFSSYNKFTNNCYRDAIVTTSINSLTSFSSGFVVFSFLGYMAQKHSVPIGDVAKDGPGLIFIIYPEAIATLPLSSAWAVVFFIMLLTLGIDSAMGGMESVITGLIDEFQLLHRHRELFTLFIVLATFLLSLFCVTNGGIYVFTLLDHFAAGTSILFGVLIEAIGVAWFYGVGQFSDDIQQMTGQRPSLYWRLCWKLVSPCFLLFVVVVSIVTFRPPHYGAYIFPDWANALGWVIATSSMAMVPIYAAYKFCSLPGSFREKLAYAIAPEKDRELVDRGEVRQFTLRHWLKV

In the case of `CN[C@@H](C)Cc1ccc2c(c1)OCO2` [MDMA, s-(+)-3,4-methylenedioxy-methamphetamine], the “binding together with carbamazepine (Dixon plot of [3H]imipramine binding)” value [1] is reported as “mutually exclusive”.

In the case of `CN(C)CCCN1c2ccccc2CCc2ccccc21` [imipramine], the “affinity lower than for SERT” value [2] is given as “approximately 10 fold” and the “affinity lower than for SERT” value [3] is given as about 1000 fold.

With `CC(N)Cc1ccc(Cl)cc1` (stereo not shown) [para-chloroamphetamine] the “binding together with carbamazepine (Dixon plot of [3H]imipramine binding)” value [1, 6] was “mutually exclusive”.

Compound SERT^WT (Homo sapiens) has a Km [4] of 1.2 ± 0.8 µM.

For ibogaine, the “binding together with carbamazepine (Dixon plot of [3H]WIN35,428 binding)” value [5] was “intersected” and the “binding together with carbamazepine (Dixon plot of [3H]imipramine binding)” value [1, 6] was “intersected”.
